Reference: patent US6793839B1, “Cucurbiturils and method for synthesis” (Unisearch Limited, priority 1999, dated 2004)

Tests used:
[1] = uptake of carbon monoxide; type: binding
Description: Accordingly, the invention further provides a method for removing carbon monoxide from a liquid or vapour containing carbon monoxide by contacting the liquid or vapour with cucurbit[5]uril.

[2] = solubility in acid and salt solutions; type: physicochemical; settings: 0.1M Na2SO4 solution
Description: All of the cucurbit[n]urils that have been observed are apparently soluble in acid solutions. Cucurbit[5 or 7 or 8 or 10]uril have been purified by successive recrystallisations from acid solutions. Because of the similar nature of the cucurbiturils, this is a slow process with more than 10 recrystallisations required to purify cucurbit[7]uril. As shown in the German patents cucurbit[6]uril can be obtained in a relatively pure state from a single recystallisation process.
The present invention provides a method for producing a range of cucurbit[n]urils and cucurbit[s,u]urils. The synthesis method results in the production of a number of cucurbit[n]urils and cucurbit[s,u]urils that have never before been produced or isolated. Separation is possible via chromatography and/or selective precipitation. The product cucurbit[n]urils and cucurbit[s,u]urils are stable to vigorous reaction conditions over a wide range of pH values. They are soluble in aqueous acid or aqueous salt solutions. The method gives cucurbiturils in much larger yields than previously possible. The use of templating compounds allows a degree of control over the relative amounts of the different cucurbit[n]urils being produced.

[3] = binding of dioxane in aqueous solutions
Description: This dioxane binding properly can form the basis of processes for the removal of dioxane. According to a further aspect of the present invention, the present invention provides a process for removing dioxane from a fluid comprising contacting the fluid with cucurbit[6]uril and/or cucurbit[7]uril.

Compound	uptake of carbon monoxide [1]	dissolution in salt solution out of a mixture containing cucurbit[5-8]urils [2]	binding of dioxane [3]
O=C1N2CN3C(=O)N4CN5C(=O)N6CN7C(=O)N8CN9C(=O)N%10CN1C1C2N2CN%11C(=O)N(CN%12C(=O)N(CN%13C(=O)N(CN%14C(=O)N(CN1C2=O)C%10C9%14)C8C7%13)C6C5%12)C4C3%11 (centres unmarked) [cucurbit[5]uril]	has shown uptake of carbon monoxide		
O=C1N2CN3C(=O)N4CN5C(=O)N6CN7C(=O)N8CN9C(=O)N%10CN%11C(=O)N%12CN1C1C2N2CN%13C(=O)N(CN%14C(=O)N(CN%15C(=O)N(CN%16C(=O)N(CN%17C(=O)N(CN1C2=O)C%12C%11%17)C%10C9%16)C8C7%15)C6C5%14)C4C3%13 (centres unmarked) [cucurbit[6]uril]		dissolving cucurbit[6 or 7]uril out of the complex mixture	bind dioxane
cucurbit[7]uril		dissolving cucurbit[6 or 7]uril out of the complex mixture	bind dioxane
